Consider seven molecules from publication PMC4019636, “Rational Design of Berberine-Based FtsZ Inhibitors with Broad-Spectrum Antibacterial Activity” (PLoS ONE, 2014).

Each structure is given as a SMILES string. Like-named read-outs stand apart in the source and are kept apart here.

Assay [1] deals with Gram-negative strains E. coli and K. pneumoniae (expressing AmpC β-lactamase). Briefly: Antimicrobial susceptibility assay, summary over Gram-negative strains. In kind it is cell-based. As to conditions: Escherichia coli, read-out: MIC values. An excerpt:
(§1) The bacterial strains S. aureus ATCC 29213, S. aureus ATCC 29247, S. aureus ATCC BAA-41, E. faecium ATCC 49624, E. faecium ATCC 700221, E. faecalis ATCC 29212, S. epidermidis ATCC 12228, E. coli ATCC 25922, and K. pneumoniae ATCC BAA-1144 used in the antimicrobial susceptibility assays were purchased from American Type Culture Collection (ATCC, USA). B. subtilis strain 168 was already available in our in-house collection. E. coli JM109 WM647 was kindly provided by Dr. W. Margolin (University of Texas-Houston Medical School). FM 4–64 was purchased from Invitrogen (Eugene, Oregon). All other chemicals and reagents were purchased from Sigma-Aldrich. Stock solutions were prepared in DMSO. The final percentage of DMSO in the assays was 1% (v/v) for all experiments.
Antimicrobial susceptibility tests were conducted in 96-well microplates using the broth microdilution procedure described in the Clinical and Laboratory Standards Institute (CLSI) guidelines. Cation-adjusted Mueller Hinton broth for S. aureus strain ATCC 29213, methicillin-resistant S. aureus strain ATCC BAA-41 and ampicillin-resistant S. aureus strain ATCC 29247, or brain heart infusion broth for antibiotic-susceptible E. faecium strain ATCC 49624 and vancomycin-resistant E. faecium strain ATCC 700221, or Mueller Hinton broth for antibiotic-susceptible strains B. subtilis strain 168, E. faecalis strain ATCC 29212 and E. coli strain ATCC 25922 were used in the assays. After incubation for 18 h at 37°C, the absorbance at 600 nm (A600) was recorded using a microplate reader (Bio-Rad laboratory Ltd., UK) and the percentage of bacterial cell inhibition with respect to vehicles (1% DMSO) was calculated. The MIC was defined as the lowest compound concentration at which the growth of bacteria was inhibited by ≥90%. Three independent assays were performed for each test.

Another assay deals with T1, S. aureus FtsZ (Staphylococcus aureus, UniProt P0A031).
T1 construct: made in house; host or cells: E. coli BL21(DE3)
T1 sequence (P0A031 1-390): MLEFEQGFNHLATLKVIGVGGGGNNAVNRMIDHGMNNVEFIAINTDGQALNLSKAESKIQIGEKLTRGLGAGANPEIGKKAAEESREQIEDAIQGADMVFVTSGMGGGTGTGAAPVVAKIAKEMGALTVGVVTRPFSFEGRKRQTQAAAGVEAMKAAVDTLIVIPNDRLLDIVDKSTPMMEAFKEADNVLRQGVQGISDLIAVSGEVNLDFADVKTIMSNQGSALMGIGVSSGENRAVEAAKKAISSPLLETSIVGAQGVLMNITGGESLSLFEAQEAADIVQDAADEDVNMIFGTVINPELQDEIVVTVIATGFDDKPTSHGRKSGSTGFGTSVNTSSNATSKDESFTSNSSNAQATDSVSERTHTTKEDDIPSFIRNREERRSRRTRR
Briefly: GTPase activity assay. To be noted: for GTPase activity of S. aureus FtsZ: 0.44 in its absence. Format: biochemical. How it is done: E. coli BL21(DE3) cells were transformed with the pRSET-A-S vector carrying S. aureus FtsZ with a 6-histidine tag attached at its N-terminus under the control of a T7 promoter. […] When the OD600 reached 0.8, protein expression was induced with 0.4 mM isopropyl-β-D-thiogalactopyranoside (IPTG) for 4 h. Cells were harvested by centrifugation at 9000 rpm for 20 min at 4°C. The cell pellet was resuspended in 20 mL of solubilization buffer (50 mM Tris-HCl, 150 mM NaCl, 1 mM PMSF and 1 mM EDTA, pH 7.4) and then lysed with 1 mg/mL of lysozyme. The mixture was incubated for 1 h on ice. The cells were disrupted by sonication and the crude lysate obtained was centrifuged at 13,000 rpm for 1 h at 4°C. The supernatant containing 6-histidine tagged S. aureus FtsZ was collected and loaded onto a nickel charged HiTrap chelating column pre-equilibrated with starting buffer (20 mM sodium phosphate buffer, 0.5 M NaCl, pH 7.4). The column was then washed with 8 column volumes of the starting buffer to remove the unbound proteins, and the histidine-tagged enzyme was eluted by a linear gradient of 0−0.2 M imidazole. Fractions containing S. aureus FtsZ were pooled, buffer-exchanged with 20 mM NH4HCO3 (pH 8.0) at 4°C, lyophilized, and stored at −20°C. A stock solution of S. aureus FtsZ for the subsequent bioassay was prepared from the lyophilized powder.
The GTPase activity of recombinant S. aureus FtsZ was measured in 96-well microplates using a CytoPhos phosphate assay Biochem Kit (Cytoskeleton, USA) according to an optimized protocol and the manufacturer’s instructions. S. aureus FtsZ (3.5 µM) was preincubated with vehicle (1% DMSO) or different concentrations of each test compound in 50 mM 4-morpholinepropanesulfonic acid buffer (MOPS, pH 6.5) for 10 min at 25°C. Then 5 mM of MgCl2 and 200 mM of KCl were added. Reactions were started with the addition of 500 µM GTP and incubated at 37°C. After 30 min, the reactions were quenched by adding 100 µL of Cytophos reagent for 10 min. Inorganic phosphate was quantified by measuring the absorbance at 650 nm with a microplate reader (Bio-Rad laboratory Ltd., UK). The relative IC50 values were determined by nonlinear regression using a sigmoidal concentration-response curve in the Origin software v6. For the rate of GTPase activity of S. aureus FtsZ, different concentrations of fresh prepared FtsZ (3, 6, 9, 12, 15 µM) was preincubated with vehicle (1% DMSO) or 25 µM, 50 µM compound 2, following the same condition. The data were plotted via Origin software v6. Three independent assays were performed for all the tests.

A further assay relates to E. faecium ATCC 700221. Briefly: Antimicrobial susceptibility assay (broth microdilution MIC). Format: cell-based. As to conditions: Enterococcus faecium, ATCC700221; E. faecium ATCC 700221 (vancomycin-resistant); brain heart infusion broth, 18 h at 37°C; growth inhibited by ≥90%; read-out: MIC.
Excerpt: as §1
(§2) Antimicrobial susceptibility tests were conducted in 96-well microplates using the broth microdilution procedure described in the Clinical and Laboratory Standards Institute (CLSI) guidelines. […] After incubation for 18 h at 37°C, the absorbance at 600 nm (A600) was recorded using a microplate reader (Bio-Rad laboratory Ltd., UK) and the percentage of bacterial cell inhibition with respect to vehicles (1% DMSO) was calculated. The MIC was defined as the lowest compound concentration at which the growth of bacteria was inhibited by ≥90%. Three independent assays were performed for each test.

A further assay relates to E. faecium ATCC 49624. The assay is described as above. Format: cell-based. As to conditions: Enterococcus faecium, ATCC49624; E. faecium ATCC 49624; brain heart infusion broth, 18 h at 37°C; growth inhibited by ≥90%; read-out: MIC.
Excerpt: as §1, §2

Where [2] appears, read: Gram-negative strains E. coli and K. pneumoniae.
Where [3] appears, read: FtsZ 3.5 µM, 500 µM GTP, 30 min at 37°C, MOPS pH 6.5, read-out: IC50±SEM, S. aureus FtsZ GTPase activity (relative IC50).

On to `COc1ccc2cc3[n+](cc2c1OC)CCc1cc2c(cc1-3)OCO2` [Berberine, Berberine chloride], for which the MIC in assay [1] is more than 500 µg/mL; in the assay on E. faecium ATCC 700221, more than 196 µg/mL; with E. faecium ATCC 49624 it was more than 196 µg/mL. For the same molecule, at S. aureus FtsZ, half-maximal inhibition (IC50) was put at 272 ± 46.6 µM.

On to `COc1ccc2cc3[n+](cc2c1OCCCOc1ccccc1)CCc1cc2c(cc1-3)OCO2` [Compound 1], for which the MIC is 32 to 128 µg/mL in assay [1] (setting [2]), 8 µg/mL in the assay on E. faecium ATCC 700221 and 8 µg/mL with E. faecium ATCC 49624. Besides, the IC50 on S. aureus FtsZ (setting [3]) stood at 56.8 ± 10.4 µM.

As to `COc1ccc2cc3[n+](cc2c1OCCCOc1ccc(Cl)cc1)CCc1cc2c(cc1-3)OCO2` [Compound 2], the figures for the MIC (in assay [1] (setting [2]); with E. faecium ATCC 700221; in the assay with E. faecium ATCC 49624) were 32 to 128 µg/mL, 4 µg/mL and 4 µg/mL, respectively. In addition, on S. aureus FtsZ (setting [3]), the IC50 came to 37.8 ± 3.8 µM. The “GTPase activity of S. aureus FtsZ” value is listed as 0.24 GTP/FtsZ/min at S. aureus FtsZ (in the presence of 25 µM compound) and 0.1 GTP/FtsZ/min on S. aureus FtsZ (in the presence of 50 µM compound).

On to `COc1ccc(OCCCOc2c(OC)ccc3cc4[n+](cc23)CCc2cc3c(cc2-4)OCO3)cc1` [Compound 3], for which the MIC in assay [1] (setting [2]) was 32 to 128 µg/mL; in the assay on E. faecium ATCC 700221, 16 µg/mL; with E. faecium ATCC 49624 it was 16 µg/mL. Also, the IC50 on S. aureus FtsZ (setting [3]) is 47.3 ± 4.6 µM.

For the molecule `COc1ccc2cc3[n+](cc2c1OCCCOc1ccccc1C)CCc1cc2c(cc1-3)OCO2` [Compound 4], the MIC in assay [1] (setting [2]) was 32 to 128 µg/mL; in the assay with E. faecium ATCC 700221 it was 8 µg/mL; in the assay with E. faecium ATCC 49624 it was 8 µg/mL. Besides, the IC50 at S. aureus FtsZ (setting [3]) was found to be 63.7 ± 4.8 µM.

Regarding `COc1ccc2cc3[n+](cc2c1OCCCOc1ccc([N+](=O)[O-])cc1)CCc1cc2c(cc1-3)OCO2` [Compound 5], the MIC is 32 to 128 µg/mL in assay [1] (setting [2]), 8 µg/mL with E. faecium ATCC 700221 and 8 µg/mL in the assay on E. faecium ATCC 49624. In addition, the IC50 on S. aureus FtsZ (setting [3]) came out at 43.4 ± 5.2 µM.

On to `COc1ccc2cc3[n+](cc2c1OCCCCOc1ccccc1)CCc1cc2c(cc1-3)OCO2` [Compound 6], for which the MIC was 32 to 128 µg/mL in assay [1] (setting [2]), 8 µg/mL in the assay on E. faecium ATCC 700221 and 8 µg/mL in the assay with E. faecium ATCC 49624. In addition, the half-inhibitory concentration (IC50) at S. aureus FtsZ (setting [3]) came out at 63.5 ± 4.7 µM.
